Assay results as given in patent US20240350506A1, “PREPARATION OF HISTONE DEACETYLASE INHIBITOR, AND PREPARATION METHOD THEREFOR AND USE THEREOF” (CHENGDU ZENITAR BIOMEDICAL TECHNOLOGY CO., LTD., priority 2021, published 2024).
Counter-ions that a name gives are not always drawn. Like-named read-outs stand apart in the source and are kept apart here. Values belong to the compound of their own block, whether it stands above or below them.

Experiments:
[1] = system: Human multiple myeloma RPMI-8226 cell lines; assay: Pharmacodynamic experiment on subcutaneously transplanted tumor, RPMI-8226, in NOD/SCID mice; assay type: in vivo; conditions: 10 mg/kg i.v. three times a week; female NOD/SCID mice, day 32
Description: Establishment of subcutaneously transplanted tumor model: […] The cells in logarithmic growth phase were selected, and washed three times with PBS buffer under sterile conditions. The single cell suspension was diluted with PBS buffer to 7×10^7 cells/mL for future use. Prior to seeding, 0.1 mL of single cell suspension was taken, and then subcutaneously inoculated into the back of female NOD/SCID mice with a weight of >20 g. Grouping and treatment: When the volume of the tumor reached 100-200 mm^3 or above (the measurement and calculation method of tumor volume (TV): TV (mm^3)=a×b2×π/6, wherein a and b represent the longest diameter and the shortest diameter (mm), respectively), tumor-bearing mice with excessive or insufficient tumor volumes would be eliminated, and qualified animals were randomly divided into groups. […] “B” means Bortezomib; “D” means Dexamethasone; “L” means Lenalidomide. Experimental endpoint and analysis indicators: Example 5 of the present invention was administered 14 times, and the experiment was terminated on the 32nd day after the first treatment. The analysis indicators are: (2) Determination of tumor weight and calculation of tumor inhibition rate (%) When the experiment was terminated, according to the operating procedures of animal experiments, the animals was euthanized and dissected to collect the tumor mass, which was then weighted. The tumor inhibition rate (%) was calculated according to the following formula: [formula] (3) Animal survival and weight changes during the experimental process.

[2] = system: Human Burkitt's lymphoma Daudi cell lines; assay: Pharmacodynamic experiment on subcutaneously transplanted tumor, Daudi, in NOD/SCID mice; assay type: in vivo; conditions: 10 mg/kg i.v. three times a week (LBH589 dose), female NOD/SCID mice, day 32
Description: Establishment of subcutaneously transplanted tumor model: Human Burkitt's lymphoma Daudi cell lines were in vitro cultured in RPMI-1640 medium containing 10% fetal bovine serum, 100 U/mL penicillin, and 100 μg/mL streptomycin. The cells in logarithmic growth phase were selected, and washed three times with PBS buffer under sterile conditions. The single cell suspension was diluted with PBS buffer to 2×10^8 cells/mL for future use. […], 0.1 mL of single cell suspension was taken, and then subcutaneously inoculated into the back of female NOD/SCID mice with a weight of >20 g. Grouping and treatment: When the volume of the tumor reached 100-200 mm^3 or above (the measurement and calculation method of tumor volume (TV): TV (mm^3)=a×b2×π/6, wherein a and b represent the longest diameter and the shortest diameter (mm), respectively), tumor-bearing mice with excessive or insufficient tumor volumes would be eliminated, and qualified animals were randomly divided into groups.
Experimental endpoint and analysis indicators: Example 5 of the present invention was administered 14 times, and the experiment was terminated on the 32nd day after the first treatment. The analysis indicators are:
(2) Determination of tumor weight and calculation of tumor inhibition rate (%)
When the experiment was terminated, the animals was euthanized according to the operating procedures of animal experiments, and dissected to collect the tumor mass, which was then weighted. The tumor inhibition rate (%) was calculated according to the following formula: […]
(3) Animal survival and weight changes during the experimental process.

[3] = Phase solubility of PM in cyclodextrins (HP-β-CD, SBE-β-CD); assay type: physicochemical; conditions: API saturated; for Storing at 4° C. for one day: cell wraps ('sediment')
Description: (§1) According to the pH guidance standard for injection, the optimal pH range for injection was 4-9.
(§2) Then, excess PM raw materials were added and dissolved under ultrasound until saturation. A clear saturated solution was filtered out over a 0.22 μm membrane and transferred into a centrifuge tube. The concentration (mg/mL) and purity (%) of dissolved PM raw materials were detected by HPLC, and then, whether there was drug precipitation was observed using a clarity detector after being stored in a refrigerator at 4° C. in dark for one day.

[4] = Phase solubility of PM in in-situ basic salt-forming agents (arginine, meglumine); assay type: physicochemical; conditions: API saturated; for solubility thermodynamic: aqueous with cosolvent or surfactant or cyclodextrin, thermodynamic from solid, read-out: Drug concentration
Description: as §1
as §2, with “excessive” for “excess”, “[…]” for “(%)”

Animal number End/Beginning [1]: 6/6 | Animal numbers End/Begining [2]: 7/7
SMILES: Cc1[nH]c2ccccc2c1CCNCc1ccc(/C=C/C(=O)NO)cc1 [LBH589]
Tumor inhibition rate (%) [1]: 59.79% | Tumor weight (g) X ± SD [1]: 0.90 ± 0.37 g | Tumor inhibition rate (%) [2]: 76.92% | Weight of tumor mass X ± SD ([2]; in g (unit assumed)): 0.83 ± 0.38

Drug concentration ([3]; HP-β-CD 5% (M/V)): 1850 µg/mL | Drug purity (%) ([3]; HP-β-CD 5% (M/V)): 99.21% | pH values ([3]; HP-β-CD 5% (M/V)): 2.42 | Storing at 4° C. for one day ([3]; HP-β-CD 5% (M/V)): Trace | Drug concentration ([3]; HP-β-CD 10% (M/V)): 2020 µg/mL | Drug purity (%) ([3]; HP-β-CD 10% (M/V)): 99.15% | pH values ([3]; HP-β-CD 10% (M/V)): 2.54 | Storing at 4° C. for one day ([3]; HP-β-CD 10% (M/V)): Trace | Drug concentration ([3]; HP-β-CD 15% (M/V)): 3160 µg/mL | Drug purity (%) ([3]; HP-β-CD 15% (M/V)): 99.08% | pH values ([3]; HP-β-CD 15% (M/V)): 2.55 | Storing at 4° C. for one day ([3]; HP-β-CD 15% (M/V)): Trace | Drug concentration ([3]; HP-β-CD 20% (M/V)): 4130 µg/mL | Drug purity (%) ([3]; HP-β-CD 20% (M/V)): 98.96% | pH values ([3]; HP-β-CD 20% (M/V)): 2.67 | Storing at 4° C. for one day ([3]; HP-β-CD 20% (M/V)): Trace | Drug concentration ([3]; HP-β-CD 25% (M/V)): 4520 µg/mL | Drug purity (%) ([3]; HP-β-CD 25% (M/V)): 98.24% | pH values ([3]; HP-β-CD 25% (M/V)): 2.7 | Storing at 4° C. for one day ([3]; HP-β-CD 25% (M/V)): Trace | Drug concentration ([3]; SBE-β-CD 5% (M/V)): 930 µg/mL | Drug purity (%) ([3]; SBE-β-CD 5% (M/V)): 99.78% | pH value ([3]; SBE-β-CD 5% (M/V)): 3.77 | Storing at 4° C. for one day ([3]; SBE-β-CD 5% (M/V)): Trace | Drug concentration ([3]; SBE-β-CD 10% (M/V)): 1180 µg/mL | Drug purity (%) ([3]; SBE-β-CD 10% (M/V)): 99.01% | pH value ([3]; SBE-β-CD 10% (M/V)): 3.71 | Storing at 4° C. for one day ([3]; SBE-β-CD 10% (M/V)): Trace | Drug concentration ([3]; SBE-β-CD 15% (M/V)): 1800 µg/mL | Drug purity (%) ([3]; SBE-β-CD 15% (M/V)): 99.35% | pH value ([3]; SBE-β-CD 15% (M/V)): 3.67 | Storing at 4° C. for one day ([3]; SBE-β-CD 15% (M/V)): Trace | Drug concentration ([3]; SBE-β-CD 20% (M/V)): 2220 µg/mL | Drug purity (%) ([3]; SBE-β-CD 20% (M/V)): 99.35% | pH value ([3]; SBE-β-CD 20% (M/V)): 3.64 | Storing at 4° C. for one day ([3]; SBE-β-CD 20% (M/V)): Trace | Drug concentration ([3]; SBE-β-CD 25% (M/V)): 2610 µg/mL | Drug purity (%) ([3]; SBE-β-CD 25% (M/V)): 99.17% | pH value ([3]; SBE-β-CD 25% (M/V)): 3.57 | Storing at 4° C. for one day ([3]; SBE-β-CD 25% (M/V)): Trace | solubility thermodynamic ([4]; 1‰ (M/V) arginine solution in UP water, Arginine 1‰): 50 µg/mL | solubility thermodynamic ([4]; 1‰ (M/V) meglumine solution in UP water, Meglumine 1‰): 130 µg/mL | solubility thermodynamic ([4]; 3‰ (M/V) arginine solution in UP water, Arginine 3‰): 110 µg/mL | solubility thermodynamic ([4]; 3‰ (M/V) meglumine solution in UP water, Meglumine 3‰): 240 µg/mL | solubility thermodynamic ([4]; 5‰ (M/V) arginine solution in UP water, Arginine 5‰): 170 µg/mL | solubility thermodynamic ([4]; 5‰ (M/V) meglumine solution in UP water, Meglumine 5‰): 350 µg/mL | solubility thermodynamic ([4]; 8‰ (M/V) arginine solution in UP water, Arginine 8‰): 280 µg/mL | solubility thermodynamic ([4]; 8‰ (M/V) meglumine solution in UP water, Meglumine 8‰): 460 µg/mL | solubility thermodynamic ([4]; 10‰ (M/V) arginine solution in UP water, Arginine 10‰): 370 µg/mL | solubility thermodynamic ([4]; 10‰ (M/V) meglumine solution in UP water, Meglumine 10‰): 700 µg/mL | Drug purity (%) ([4]; Arginine 1‰): 100% | pH value ([4]; Arginine 1‰): 8.87 | Drug purity (%) ([4]; Arginine 3‰): 100% | pH value ([4]; Arginine 3‰): 9.30 | Drug purity (%) ([4]; Arginine 5‰): 100% | pH value ([4]; Arginine 5‰): 9.61 | Drug purity (%) ([4]; Arginine 8‰): 98.97% | pH value ([4]; Arginine 8‰): 9.76 | Drug purity (%) ([4]; Arginine 10‰): 99.24% | pH value ([4]; Arginine 10‰): 9.84 | Drug purity (%) ([4]; Meglumine 1‰): 100% | pH value ([4]; Meglumine 1‰): 9.65 | Drug purity (%) ([4]; Meglumine 3‰): 99.80% | pH value ([4]; Meglumine 3‰): 9.98 | Drug purity (%) ([4]; Meglumine 5‰): 96.55% | pH value ([4]; Meglumine 5‰): 10.22 | Drug purity (%) ([4]; Meglumine 8‰): 99.45% | pH value ([4]; Meglumine 8‰): 10.41 | Drug purity (%) ([4]; Meglumine 10‰): 99.07% | pH value ([4]; Meglumine 10‰): 10.42
SMILES: CN(Cc1nc2c(N3CCOCC3)nc(-c3ccc(N)cc3)nc2n1C)c1ncc(C(=O)NO)cn1 [API, purinostat mesylate]
